Assays:
[1] = test system: T. aurantiacus CEL5A endoglucanase II and P. brasilianum CEL3A beta-glucosidase; assay: Microcrystalline cellulose conversion assay I (Examples 8, 9) without GH61 polypeptide; type: biochemical, Thermoascus aurantiacus; Penicillium brasilianum; conditions: dioxy compound 0.3% w/w + endoglucanase II + beta-glucosidase (5 mg/g each), no GH61; 96 hours, at either 50° C. or 60° C.
Experimental: A 5% microcrystalline cellulose slurry was prepared by addition of 2.5 g of AVICEL®PH101 (Sigma-Aldrich, St. Louis, Mo., USA) to a graduated 50 ml screw-cap conical tube followed by 15 ml of 1 M sodium acetate pH 5 and 1 ml of 100 mM MnSO4 and approximately 20 ml of deionizer water. Each conical tube was then mixed thoroughly by shaking/vortexing, and adjusted to 50 ml total with deionized water and mixed again. Contents of the tube were then quickly transferred to a 100 ml beaker and stirred rapidly with a magnetic stirrer. Five hundred μl aliquots of the 5% AVICEL® slurry were pipetted into wells of a 2.0 ml 96-deepwell plate (Axygen, Union City, Calif., USA) using a 1000 μl micropipette with a wide aperture tip (end of tip cut off about 2 mm from the base). Three hundred μl of either deionized water or a 1% dioxy compound solution (dissolved in deionized water) was added to each well.
The dioxy compounds assayed include caffeic acid (Sigma-Aldrich, St. Louis, Mo., USA), dichlorophenolindophenol (DCPIP; Sigma-Aldrich, St. Louis, Mo., USA), ethyl gallate (Sigma-Aldrich, St. Louis, Mo., USA), gallic acid (Sigma-Aldrich, St. Louis, Mo., USA), 3,4-dihydroxybenzoic acid (Sigma-Aldrich, St. Louis, Mo., USA), pyrocatechol (Sigma-Aldrich, St. Louis, Mo., USA), pyrogallol (Sigma-Aldrich, St. Louis, Mo., USA), sinapinic acid (3,5 dimethoxy-4-hydroxy cinnamic acid; Apin Chemicals LTD, Abingdon, UK), and tannic acid (Sigma-Aldrich, St. Louis, Mo., USA).
Enzyme mixtures were prepared and then added simultaneously to all wells in a volume of 200 μl, for a total of 1 ml in each reaction. […] All experiments reported were performed in triplicate.
After approximately 4 days, the deep-well plate was removed from the incubator and chilled overnight to 4° C. The plate was then mixed well by inversion and briefly centrifuged at 52×g in a SORVALL® RT7 centrifuge (Thermo Fisher Scientific, Waltham, Mass., USA) for 10 seconds. Samples were then mixed by pipetting, and 200 μl from each well were transferred to a MULTISCREEN® HV centrifuge filter plate assembly (Millipore, Bedford, Mass., USA). The centrifuge filter plate assembly was centrifuged at 2000 rpm in a SORVALL® RT7 centrifuge for 20 minutes. […] Sugars were detected using a refractive index detector (Agilent Technologies, Inc., Santa Clara, Calif., USA) with quantification by integration compared to purified sugar standards.
In this assay only glucose was measured since beta-glucosidase was at high levels in all samples but the controls.
A limit digest was performed to determine the total concentration accessible glucose equivalents using 100 mg of T. reesei cellulase (CELLIC™ CTec, Novozymes A/S, Bagsvaerd, Denmark) per gram cellulose, Triplicate data points were averaged and standard deviation was calculated.

[2] = target: Aspergillus fumigatus GH61B polypeptide (Aspergillus fumigatus, UniProt Q4WP32); assay: Variable pH PASC conversion assay (Examples 29, 30) with Aspergillus fumigatus GH61B polypeptide; type: biochemical; conditions: gallic acid 0.2% w/w + Aspergillus fumigatus GH61B polypeptide (10 mg/g) + beta-glucosidase (10 mg/g), 72 hours, 50° C.
[3] = target: T. aurantiacus GH61A polypeptide (Thermoascus aurantiacus, UniProt G3XAP7, N13Y); assay: Phosphoric acid swollen cellulose (PASC) conversion assay (Examples 20, 21); type: biochemical; conditions: 72 hours, 50° C.
Experimental: A 1.0% PASC slurry was prepared as described in Example 17. Ten ml of the 1.0% PASC slurry, 10 ml of H2O, and […] of dioxy compound were thoroughly mixed by shaking,
Five hundred μl aliquots of the 0.50% phosphoric acid swollen cellulose/0.05% dioxy compound slurry were pipetted into wells of a 2.0 ml 96-deepwell plate (Axygen, Union City, Calif., USA) using a 1000 μl micropipette with a wide aperture tip (end of tip cut off about 2 mm from the base). One hundred μl of 10 mM MnSO4-500 mM sodium acetate pH 5 were then added to each well. Two hundred μl of deionized water were added to each well. Enzyme mixtures were prepared and then added simultaneously to all wells in a volume of 200 μl, for a total of 1 ml in each reaction. […] All experiments reported were performed in triplicate.
Primary analysis of the hydrolysis reactions was performed using an AGILENT® 1100 HPLC with CHEMSTATION® software equipped with an AMINEX™ HPX-87H column. After approximately 4 days, the deep-well plate was removed from the incubator and chilled overnight to 4° C. The plate was then mixed well by inversion and briefly centrifuged 52×g in a SORVALL® RT7 centrifuge for 10 seconds. Samples were then mixed by pipetting, and 200 μl from each well were transferred to a MULTISCREEN® HV centrifuge filter plate assembly. The centrifuge filter plate assembly was centrifuged at 2000 rpm in a SORVALL® RT7 centrifuge for 20 minutes. […] Sugars were detected using a refractive index detector with quantification by integration compared to purified sugar standards.
All HPLC data processing was performed using MICROSOFT EXCEL™ software. […] In this assay only glucose was measured since beta-glucosidase was at high levels in all samples but the controls. Percent conversion was calculated using Equation 1. Triplicate data points were averaged and standard deviation was calculated.
The PASC assay was performed as described in Example 20.
Data were collected and analyzed, as described in Example 20, after 72 hours of incubation at 50° C.

Aspergillus fumigatus GH61B polypeptide, sequence (Q4WP32 22-250): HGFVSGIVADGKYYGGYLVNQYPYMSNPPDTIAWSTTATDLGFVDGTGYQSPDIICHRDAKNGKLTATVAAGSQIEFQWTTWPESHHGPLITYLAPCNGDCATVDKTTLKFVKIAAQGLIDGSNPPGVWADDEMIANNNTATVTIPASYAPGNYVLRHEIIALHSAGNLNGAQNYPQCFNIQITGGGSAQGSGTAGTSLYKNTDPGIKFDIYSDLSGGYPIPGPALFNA

For O=C(O)c1cc(O)c(O)c(O)c1 [gallic acid], the “change in conversion of microcrystalline cellulose compared to the enzymes in the absence of the dioxy compound” value [1] was “no significant change”, the “conversion of phosphoric acid swollen cellulose” value ([2]; pH 4) was 21.7±3.0% and the “conversion of phosphoric acid swollen cellulose” value ([2]; pH 5) was 23.8±1.4%. For the same molecule, the “conversion of phosphoric acid swollen cellulose” value ([2]; pH 6) was 17.3±0.3% and the “conversion of phosphoric acid swollen cellulose” value ([2]; pH 7.5) was 5.6±0.7%.

B1: T. aurantiacus GH61A polypeptide: GH61A polypeptide having cellulolytic enhancing activity (SEQ ID NO: 14), recombinantly produced in Aspergillus oryzae JaL250 (protein, listed as Thermoascus aurantiacus)
chain: MSFSKIIATAGVLASASLVAGHGFVQNIVIDGKYYGGYLVNQYPYMSNPPEVIAWSTTATDLGFVDGTGYQTPDIICHRGAKPGALTAPVSPGGTVELQWTPWPDSHHGPVINYLAPCNGDCSTVDKTQLEFFKIAESGLINDDNPPGIWASDNLIAANNSWTVTIPTTIAPGNYVLRHEIIALHSAQNQDGAQNYPQCINLQVTGGGSDNPAGTLGTALYHDTDPGILINIYQKLSSYIIPGPPLYTG
In the case of B1, the “conversion of phosphoric acid swollen cellulose” value ([3]; T. aurantiacus GH61A polypeptide (20 mg/g) + A. oryzae CEL3A beta-glucosidase (20 mg/g), no dioxy compound) is reported as 2.3±0.6% and the “conversion of PASC” value ([3]; T. aurantiacus GH61A polypeptide (20 mg/g) alone) is reported as 1.5±1.1%.
